Measurements: ChEMBL document CHEMBL4622837, “Finding the mechanism of esterase D activation by a small molecule” (Bioorg Med Chem Lett, 2020)
Calls of active or inactive are those of the source. No cut-off for these calls is given here.

Assays:
[1] = molecular target: T1, S-formylglutathione hydrolase (Homo sapiens) (UniProt P10768); test: Activation of human ESD expressed in HEK293T cells transfected with pEGFP-N1 assessed as compound co-localization with protein by fluorescence microscopic analysis; format: cell-based; conditions: HEK-293T
T1 sequence (whole entry): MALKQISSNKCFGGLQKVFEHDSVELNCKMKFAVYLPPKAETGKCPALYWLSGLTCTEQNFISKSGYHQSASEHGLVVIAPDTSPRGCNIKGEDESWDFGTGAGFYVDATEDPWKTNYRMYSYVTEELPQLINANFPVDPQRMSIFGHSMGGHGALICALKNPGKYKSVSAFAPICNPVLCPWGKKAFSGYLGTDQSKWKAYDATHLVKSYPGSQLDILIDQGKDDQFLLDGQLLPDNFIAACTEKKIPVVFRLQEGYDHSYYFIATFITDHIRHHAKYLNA

[2] = test system: HeLa; test: Activation of ESD K180A mutant (unknown origin) expressed in human HeLa cells transfected with p-EGFP assessed as compound co-localization with protein by fluorescence microscopic analysis; format: cell-based
[3] = test system: HEK-293T; test: Activation of ESD K213A mutant (unknown origin) expressed in HEK293T cells transfected with p-EGFP assessed as induction of protein mono ubiquitination at 0.1 to 1 uM measured up to 24 hrs by immunoblotting analysis; format: cell-based; conditions: Homo sapiens
[4] = test system: HeLa; test: Activation of ESD K180A mutant (unknown origin) expressed in human HeLa cells transfected with p-EGFP at 0.1 uM; format: cell-based
[5] = molecular target: T2, S-formylglutathione hydrolase (Homo sapiens, UniProt P10768); test: Binding affinity to human ESD expressed in HEK293T cells assessed as dissociation constant; format: cell-based, HEK-293T
T2 sequence (P10768 whole entry): T1 sequence (whole entry)

[6] = molecular target: T1, S-formylglutathione hydrolase (Homo sapiens); test: Activation of human ESD expressed in HEK293T cells transfected with pEGFP-N1 at 0.1 uM after 24 hrs; format: cell-based; conditions: HEK-293T
[7] = molecular target: T2, S-formylglutathione hydrolase; test: Binding affinity to human ESD expressed in HEK293T cells assessed as dissociation rate constant; format: cell-based; conditions: hek-293t
[8] = molecular target: T1, S-formylglutathione hydrolase (Homo sapiens); test: Activation of ESD in human L02 cells at 0.1 to 1 uM after 24 hrs; format: cell-based
[9] = molecular target: T1, S-formylglutathione hydrolase (Homo sapiens); test: Inhibition of IgG binding to ESD in human L02 cells by immuno precipitation assay; format: cell-based
[10] = test system: HeLa; test: Activation of ESD K213A mutant (unknown origin) expressed in human HeLa cells transfected with p-EGFP at 0.1 uM; format: cell-based
[11] = test system: HeLa; test: Activation of ESD K213A mutant (unknown origin) expressed in human HeLa cells transfected with p-EGFP assessed as protein co-localization by fluorescence microscopic analysis; format: cell-based
[12] = molecular target: T1, S-formylglutathione hydrolase (Homo sapiens); test: Activation of human ESD expressed in HEK293T cells transfected with pEGFP-N1 assessed as induction of protein mono ubiquitination at 1 to 5 uM after 6 hrs by immunoblotting analysis; format: cell-based; conditions: HEK-293T
[13] = test system: HEK-293T; test: Activation of ESD K180A mutant (unknown origin) expressed in HEK293T cells transfected with p-EGFP assessed as increase in protein mono ubiquitination at 0.1 to 1 uM measured up to 36 hrs by Western blot analysis; format: cell-based; conditions: Homo sapiens
[14] = test system: HEK-293T; test: Activation of ESD K213A mutant (unknown origin) expressed in HEK293T cells transfected with p-EGFP assessed as increase in protein mono ubiquitination at 0.1 to 1 uM measured up to 36 hrs by Western blot analysis; format: cell-based; conditions: Homo sapiens
[15] = test system: HEK-293T; test: Activation of ESD K180A mutant (unknown origin) expressed in HEK293T cells transfected with p-EGFP assessed as protein mono ubiquitination at 0.1 to 1 uM measured up to 24 hrs by Western blot analysis; format: cell-based; conditions: Homo sapiens
[16] = molecular target: T1, S-formylglutathione hydrolase (Homo sapiens); test: Activation of wild type human ESD expressed in HEK293T cells assessed as increase in protein mono ubiquitination at 0.1 to 1 uM incubated for 12 hrs by Western blot analysis; format: cell-based; conditions: HEK-293T
[17] = molecular target: T1, S-formylglutathione hydrolase (Homo sapiens); test: Activation of human ESD expressed in HEK293T cells transfected with pEGFP-N1 assessed as increase in protein mono ubiquitination at 0.1 to 5 uM after 12 to 24 hrs by immunoblotting analysis; format: cell-based; conditions: HEK-293T
[18] = molecular target: T1, S-formylglutathione hydrolase (Homo sapiens); test: Binding affinity to human ESD expressed in HEK293T cells assessed as association rate constant; format: cell-based; conditions: HEK-293T
[19] = test system: HEK-293T; test: Inhibition of IgG binding to ESD K180A mutant (unknown origin) expressed in HEK293T cells; format: cell-based; conditions: Homo sapiens
[20] = molecular target: T1, S-formylglutathione hydrolase (Homo sapiens); test: Activation of human ESD expressed in HEK293T cells transfected with pEGFP-N1 assessed as induction of protein mono ubiquitination at 5 uM after 3 hrs by immunoblotting analysis; format: cell-based; conditions: HEK-293T
[21] = test system: HEK-293T; test: Inhibition of IgG binding to ESD K213A mutant (unknown origin) expressed in HEK293T cells; format: cell-based; conditions: Homo sapiens
[22] = molecular target: T1, S-formylglutathione hydrolase (Homo sapiens); test: Inhibition of IgG binding to human ESD expressed in HEK293T cells; format: cell-based; conditions: HEK-293T
[23] = molecular target: T1, S-formylglutathione hydrolase (Homo sapiens); test: Activation of human ESD expressed in HEK293T cells transfected with pEGFP-N1 assessed as protein redistribution in cytoplasm by fluorescence microscopic analysis; format: cell-based; conditions: HEK-293T

Q: How did the Activity [1] turn out when `Oc1ccc(Cl)cc1C1=NN(c2ccccn2)C(c2ccccc2)C1` (stereo not drawn) was run?
A: The Activity was “Active”.

Q: And the Activity [2]?
A: Its Activity is “inactive”.

Q: And the Activity [3]?
A: Its Activity is “inactive”.

Q: What about the Activity [4] of the same compound?
A: Its Activity is “inactive”.

Q: What about the Kd [5] of the same compound?
A: Its Kd is 0.8 nM.

Q: And the Activity [6]?
A: The Activity was “Active”.

Q: And the Kd [7]?
A: Its Kd is 4.4 ×10⁻⁴ /s.

Q: What about the Activity [8] of the same compound?
A: Its Activity is “Active”.

Q: And the inhibition [9]?
A: The inhibition was “Dose-dependent effect”.

Q: And the Activity [10]?
A: The Activity was “inactive”.

Q: What about the Activity [11] of the same compound?
A: The Activity was “inactive”.

Q: And the Activity [12]?
A: The Activity was “Active”.

Q: What about the Activity [13] of the same compound?
A: The Activity was “inactive”.

Q: What about the Activity [14] of the same compound?
A: The Activity was “inactive”.

Q: What about the Activity [15] of the same compound?
A: The Activity was “inactive”.

Q: And the Activity [16]?
A: Its Activity is “Active”.

Q: What about the Activity [17] of the same compound?
A: The Activity was “Active”.

Q: And the Ka [18]?
A: Its Ka is 5.2 ×10⁵ /M/s.

Q: And the inhibition [19]?
A: Its inhibition is “inactive”.

Q: And the Activity [20]?
A: The Activity was “Active”.

Q: And the inhibition [21]?
A: The inhibition was “inactive”.

Q: And the inhibition [22]?
A: The inhibition was “Dose-dependent effect”.

Q: And the Activity [23]?
A: The Activity was “Active”.
